Each structure is given as a SMILES string.

A short description of data set [1]: Compound was evaluated for rate enhancement, obtained in the hydrolysis of N-methoxycarbonyl-L-phenylalanine-p-nitrophenylester (Ko = 1.1 x 10 e-3/min); ratio=Kobs/K0. In kind it is ADME.
Data set [2] in a line: Compound was evaluated for rate enhancement, obtained in the hydrolysis of para-nitrophenyl acetate (Ko = 1.6 x 10 e-4/min); ratio=Kobs/K0. Type of data set: ADME.

On to `OC1COc2ccccc2CNCCNCCNCc2ccccc2OC1.[O-][Cl+3]([O-])([O-])[O][Zn][O][Cl+3]([O-])([O-])[O-]`, for which the Ratio in data set [1] turned out to be 2.9; in data set [2] it was 1.7.

As to `[O-][Cl+3]([O-])([O-])[O][Zn][O][Cl+3]([O-])([O-])[O-].c1ccc2c(c1)CNCCNCCNCc1ccccc1OCC(Oc1ccc3ccccc3c1)CO2`, the values for the Ratio in data set [1] and in data set [2] were 4.7 and 2.9, respectively.

With `COC1COc2ccccc2CNCCNCCNCc2ccccc2OC1.[O-][Cl+3]([O-])([O-])[O][Zn][O][Cl+3]([O-])([O-])[O-]`, the values for the Ratio in data set [1] and in data set [2] were 3 and 2.4, respectively.

For `[O-][Cl+3]([O-])([O-])[O][Zn][O][Cl+3]([O-])([O-])[O-].c1ccc(OC2COc3ccccc3CNCCNCCNCc3ccccc3OC2)cc1`, the figures for the Ratio in data set [1] and in data set [2] were 3.9 and 2.5, respectively.

Values taken from ChEMBL document CHEMBL1130990, “High-throughput synthesis and direct screening for the discovery of novel hydrolytic metal complexes” (Bioorg Med Chem Lett, 1998).
